Data set [1] is described as follows: Drug level in pH 7.4 PBS treated with camptothecin-lysine at 1 mM at 37 degC after 3 days by RP-HPLC analysis. To be noted: buffer, pH 7.4, 72 h, 1000 µM. Type of data set: physicochemical.
Data set [2] is described as follows: Drug level in pH 7.4 PBS treated with camptothecin-lysine nanotube at 37 degC after 1 week by RP-HPLC analysis. Type of data set: physicochemical. To be noted: buffer, pH 7.4, 168 h.
Data set [3] can be described thus: Drug level in pH 9 borate buffer treated with camptothecin-lysine at 1 mM at 37 degC by RP-HPLC analysis. To be noted: pH 9, 1000 µM. The data set is classed as physicochemical.
Another data set deals with NCI-H23. The experiment in a line: Cytotoxicity against human NCI-H23 cells assessed as cell viability after 96 hrs by MTT assay. To be noted: NCI-H23, 96 h. The data set is classed as functional, cell-based. (In general: Formazan colour is commonly taken as a measure of viable cells.)
A short description of data set [4]: Induction of self assembly in pH 7.4 PBS assessed as diameter of nanotube at 10 mM after 24 hrs by transmission electron microscopy. To be noted: buffer, pH 7.4, 24 h, 10000 µM. Type of data set: physicochemical.
Data set [5] is described as follows: Induction of J-type self aggregation in pH 7.4 PBS at 250 uM after 3 days by UV-Vis spectrometry. To be noted: buffer, pH 7.4, 72 h. The data set is classed as physicochemical.
Data set [6] is described as follows: Solubility of the compound in water. Type of data set: physicochemical.
The subject of data set [7] is A549. The experiment in a line: Cytotoxicity against human A549 cells assessed as cell viability after 96 hrs by MTT assay. Type of data set: functional, cell-based. To be noted: A549, 96 h.
Data set [8] in a line: Critical aggregation concentration of the compound in water by Nile Red dye based luminescence spectrometric method. Type of data set: ADME. To be noted: buffer.
Data set [9] in a line: Solubility of the compound in pH 7.4 PBS. Type of data set: physicochemical.
Data set [10] in a line: Induction of self assembly in pH 7.4 PBS assessed as thickness of nanotube walls at 1 mM after 72 hrs by transmission electron microscopy. Type of data set: physicochemical. To be noted: buffer, pH 7.4, 72 h, 1000 µM.
The nature of data set [11]: Induction of non specific self aggregation in pH 7.4 PBS at 250 uM. The data set is classed as physicochemical. To be noted: buffer, pH 7.4, 250 µM.
Data set [12] in a line: Drug metabolism in pH 7.4 PBS assessed as remaining parent compound level at 1 mM at 37 degC after 3 days by RP-HPLC analysis. Type of data set: physicochemical. To be noted: read-out: Stability.
The nature of data set [13]: Induction of self assembly in water at pH 7 assessed as diameter of nanotube at 1 mM after 72 hrs by transmission electron microscopy. Type of data set: physicochemical. To be noted: buffer, pH 7, 72 h, 1000 µM.
Data set [14] can be described thus: Induction of self assembly in pH 7.4 PBS assessed as zeta potential of nanotube at 1 mM after 1 day. The data set is classed as physicochemical. To be noted: buffer, pH 7.4, 24 h, 1000 µM.
Data set [15] is described as follows: Critical aggregation concentration of the compound in pH 7.4 PBS by Nile Red dye based luminescence spectrometric method. The data set is classed as ADME. To be noted: buffer.
Data set [16] concerns A549. The experiment in a line: Drug uptake in human A549 cells at 10 mM after 8 hrs by flow cytometric method. Type of data set: ADME, cell-based. To be noted: a549, 8 h, 10000 µM. (In flow cytometry, cells or beads pass a laser one at a time.)
The test system of another data set is NCI-H460. The experiment in a line: Cytotoxicity against human NCI-H460 cells assessed as cell viability after 96 hrs by MTT assay. To be noted: NCI-H460, 96 h. Type of data set: functional, cell-based.
The nature of data set [17]: Induction of self assembly in pH 7.4 PBS assessed as diameter of nanotube at 1 mM after 72 hrs by transmission electron microscopy. The data set is classed as physicochemical. To be noted: buffer, pH 7.4, 72 h, 1000 µM.
A short description of data set [18]: Induction of self assembly in pH 7.4 PBS assessed as beta-sheet interaction within assembly at 20 mM lyophilized for 3 days followed by redissolved in D2O by fourier transform infrared spectroscopic method. Type of data set: physicochemical. To be noted: buffer, pH 7.4, 72 h, 20000 µM.
Data set [19] in a line: Drug level in pH 7.4 PBS treated with camptothecin-lysine at 0.1 mM at 37 degC after 15 hrs by RP-HPLC analysis. The data set is classed as physicochemical. To be noted: buffer, pH 7.4, 15 h, 100 µM.
A short description of data set [20]: Drug level in pH 6 PBS treated with camptothecin-lysine at 0.1 mM at 37 degC after 15 hrs by RP-HPLC analysis. Type of data set: physicochemical. To be noted: buffer, pH 6, 15 h, 100 µM.
The test system of data set [21] is A549. Kind of data set: Drug uptake in human A549 cells at 10 mM after 12 to 24 hrs by flow cytometric method. The data set is classed as ADME, cell-based. To be noted: a549, 10000 µM.

In brackets after ≈: the same amount, converted by molar mass.

The values that follow come from ChEMBL document CHEMBL3797142, “The self-assembly of a camptothecin-lysine nanotube” (Bioorg Med Chem Lett, 2016).

What is called IC50 is the concentration that inhibits the measured activity by half. A word on the solubility: it is how much of the substance goes into solution per volume.

Regarding `CC[C@@](O)(C(=O)O)c1cc2n(c(=O)c1CO)Cc1cc3ccccc3nc1-2`, the Drug metabolism entry in [1], in data set [2] and in [3] was “metabolite_detected” throughout.
With `CC[C@@]1(OC(=O)CCC(=O)NCCCC[C@H](N)C(N)=O)C(=O)OCc2c1cc1n(c2=O)Cc2cc3ccccc3nc2-1`, the IC50 amounted to 0.12 µM in the data set with NCI-H23, 1.12 µM in the data set on A549 [7] and 0.43 µM with NCI-H460. Besides, the Activity is on record as less than 500 nm in data set [4]; “Active” in data set [5]; 7.5 nm in data set [10]; “Active” in data set [11]; 40 nm in [13]; 19.7 mV in data set [14]. Besides, the Activity in data set [17] is 70 nm; in data set [18] it was “Not Active”. In addition, the solubility in data set [6] was determined as 12100 µg/mL (≈ 21 mM); in data set [9] it was 5140 µg/mL (≈ 8.93 mM). For the same molecule, the CAC was determined as 200 µM in data set [8] and 160 µM in data set [15]. In addition, the remaining at 72 h, 1000 µM in [12] was 39%. In addition, the Drug uptake result with A549 [16] is “Active”.
Consider `CC[C@@]1(O)C(=O)OCc2c1cc1n(c2=O)Cc2cc3ccccc3nc2-1` [CAMPTOTHECIN], for which the IC50 in the data set with NCI-H23 stood at 0.07 µM; in the data set on A549 [7] it was 0.35 µM; in the data set with NCI-H460 it was 0.19 µM. Moreover, the Drug metabolism result in [19], in [1], in data set [20] and in [2] was “metabolite_detected” in each case. The molecule also registered a solubility in data set [6] of 3 µg/mL (≈ 0.00861 mM). For the same molecule, the Drug uptake result in the data set on A549 [21] and in the data set on A549 [16] was “Active” each time.
